The results in this text go back to patent US20230265103A1 (TME Therapeutics LLC, priority 2021, published 2023).

One data set deals with T1, PIKFYVE (Homo sapiens, UniProt Q9Y2I7).
T1 construct: purchased Eurofins (KINOMEscan); host or cells: E. coli BL21-derived (T7 phage display) or HEK-293
T1 sequence (Q9Y2I7 whole entry): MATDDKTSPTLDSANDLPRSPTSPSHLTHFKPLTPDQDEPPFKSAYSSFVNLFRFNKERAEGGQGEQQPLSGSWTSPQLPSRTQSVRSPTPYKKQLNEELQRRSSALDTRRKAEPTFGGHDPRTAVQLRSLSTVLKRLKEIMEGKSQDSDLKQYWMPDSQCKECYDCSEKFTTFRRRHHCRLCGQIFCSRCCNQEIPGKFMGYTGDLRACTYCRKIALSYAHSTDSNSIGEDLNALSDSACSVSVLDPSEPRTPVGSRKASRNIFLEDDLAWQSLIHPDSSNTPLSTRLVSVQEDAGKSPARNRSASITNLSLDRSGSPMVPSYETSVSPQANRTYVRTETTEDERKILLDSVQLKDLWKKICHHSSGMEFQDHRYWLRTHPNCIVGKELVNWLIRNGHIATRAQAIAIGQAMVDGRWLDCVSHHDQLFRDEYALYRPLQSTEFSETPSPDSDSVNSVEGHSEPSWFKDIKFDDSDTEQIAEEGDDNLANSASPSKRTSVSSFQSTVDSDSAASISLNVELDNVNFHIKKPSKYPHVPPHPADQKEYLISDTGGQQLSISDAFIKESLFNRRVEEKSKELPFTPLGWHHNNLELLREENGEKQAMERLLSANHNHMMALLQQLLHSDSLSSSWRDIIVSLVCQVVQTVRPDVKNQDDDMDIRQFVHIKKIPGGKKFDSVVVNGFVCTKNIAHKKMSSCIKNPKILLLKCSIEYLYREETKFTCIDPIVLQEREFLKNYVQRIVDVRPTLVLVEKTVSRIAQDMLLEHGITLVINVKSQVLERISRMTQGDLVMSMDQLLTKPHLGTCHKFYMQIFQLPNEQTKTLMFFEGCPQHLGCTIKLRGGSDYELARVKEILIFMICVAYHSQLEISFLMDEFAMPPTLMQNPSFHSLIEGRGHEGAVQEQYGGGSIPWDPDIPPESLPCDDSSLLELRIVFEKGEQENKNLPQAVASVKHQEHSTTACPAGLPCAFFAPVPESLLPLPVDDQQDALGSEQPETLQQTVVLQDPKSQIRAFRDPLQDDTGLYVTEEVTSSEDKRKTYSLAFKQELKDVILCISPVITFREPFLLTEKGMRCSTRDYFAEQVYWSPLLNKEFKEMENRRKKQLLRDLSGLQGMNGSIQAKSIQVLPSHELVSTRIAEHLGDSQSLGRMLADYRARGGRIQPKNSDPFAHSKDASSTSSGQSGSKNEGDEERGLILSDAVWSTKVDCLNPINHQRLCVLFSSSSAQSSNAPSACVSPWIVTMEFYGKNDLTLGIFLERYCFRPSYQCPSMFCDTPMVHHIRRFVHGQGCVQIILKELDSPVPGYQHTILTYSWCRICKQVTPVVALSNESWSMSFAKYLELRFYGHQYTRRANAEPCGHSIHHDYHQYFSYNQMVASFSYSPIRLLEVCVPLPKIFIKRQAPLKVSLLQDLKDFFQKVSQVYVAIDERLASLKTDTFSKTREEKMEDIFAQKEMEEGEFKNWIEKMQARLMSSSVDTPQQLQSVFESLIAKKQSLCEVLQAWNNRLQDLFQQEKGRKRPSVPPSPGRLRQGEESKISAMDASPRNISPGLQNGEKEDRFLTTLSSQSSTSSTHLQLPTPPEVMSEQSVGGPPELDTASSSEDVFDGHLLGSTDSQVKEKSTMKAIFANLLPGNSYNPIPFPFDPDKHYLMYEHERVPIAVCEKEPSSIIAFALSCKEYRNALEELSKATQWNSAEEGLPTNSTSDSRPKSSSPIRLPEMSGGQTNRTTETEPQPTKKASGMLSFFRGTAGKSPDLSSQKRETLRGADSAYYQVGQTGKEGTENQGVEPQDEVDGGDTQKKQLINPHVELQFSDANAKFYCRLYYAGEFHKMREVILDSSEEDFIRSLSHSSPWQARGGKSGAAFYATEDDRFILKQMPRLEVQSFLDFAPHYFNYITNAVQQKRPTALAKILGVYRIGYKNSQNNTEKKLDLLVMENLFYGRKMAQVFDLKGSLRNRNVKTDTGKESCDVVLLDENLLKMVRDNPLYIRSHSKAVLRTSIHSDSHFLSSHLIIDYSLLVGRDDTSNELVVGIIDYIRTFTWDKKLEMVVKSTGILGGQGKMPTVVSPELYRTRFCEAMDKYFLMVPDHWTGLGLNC
Put plainly: KINOMEscan Kinase Assay (Eurofins), PIKFYVE inhibitory activity. In kind it is binding. As to conditions: @ 5 nM.
Turning to `CO[C@@H](C)c1cccc(-c2ccn(-c3cc(N4CCOCC4)c4sc(CN5CCOCC5)cc4n3)n2)c1` (single isomer, unassigned) [Ex. 212, 4-(5-(3-(3-(1-methoxyethyl)phenyl)-1H-pyrazol-1-yl)-2-(morpholinomethyl)thieno[3,2-b]pyridin-7-yl)morpholine], the inhibition (commonly the share of the control response that was lost under treatment) at 0.005 µM amounted to 0%.

Still in this data set, the particulars now being: @ 30 nM.
In turn, `Cc1cccc(-c2ccn(-c3nc(N4CCC(=O)C4)c4sc(CN5CCN(S(C)(=O)=O)CC5)cc4n3)n2)c1` [Ex. 129, 1-(6-((4-(methylsulfonyl)piperazin-1-yl)methyl)-2-(3-(m-tolyl)-1H-pyrazol-1-yl)thieno[3,2-d]pyrimidin-4-yl)pyrrolidin-3-one] had an inhibition at 0.03 µM of 92%.

The data set is the same for the next values; noted with them: KINOMEscan.
For `Cc1cccc(-c2ccn(-c3nc(N4CCOCC4)c4nc(-c5cnn(C)c5)[nH]c4n3)n2)c1` [Ex. 44, 4-(8-(1-methyl-1H-pyrazol-4-yl)-2-(3-(m-tolyl)-1H-pyrazol-1-yl)-9H-purin-6-yl)morpholine], the IC50 (commonly the point on the concentration scale where inhibition reaches its midpoint) was below 0.001 µM. In turn, `Cc1cccc(-c2ccn(-c3nc(N4CCOCC4)c4sc(C(=O)N5CC[C@@H](N(C)C)C5)c(C)c4n3)n2)c1` [Ex. 60, (R)-(3-(dimethylamino)pyrrolidin-1-yl)(7-methyl-4-morpholino-2-(3-(m-tolyl)-1H-pyrazol-1-yl)thieno[3,2-d]pyrimidin-6-yl)methanone] yielded an IC50 of 0.001 to 0.01 µM. `Cc1cccc(-c2ccn(-c3nc(N4CC5CC4CO5)c4sc(CN5CCN(S(C)(=O)=O)CC5)cc4n3)n2)c1` (centres unmarked) [Ex. 73, 5-(6-((4-(methylsulfonyl)piperazin-1-yl)methyl)-2-(3-(m-tolyl)-1H-pyrazol-1-yl)thieno[3,2-d]pyrimidin-4-yl)-2-oxa-5-azabicyclo[2.2.1]heptane]: the IC50 lay within 0.01 to 0.1 µM. In the case of `Cc1cccc(-c2ccn(-c3cc(N4CCOCC4)c4sc(CN5CCN(C)CC5)cc4n3)n2)c1` [Ex. 67], the IC50 was below 0.001 µM. Consider `Cc1cccc(-c2ccn(-c3nc(N4CCOCC4)c4sc(C(C)N5CCC(N(C)C)CC5)cc4n3)n2)c1` (centres unmarked) [Ex. 17, N,N-dimethyl-1-(1-(4-morpholino-2-(3-(m-tolyl)-1H-pyrazol-1-yl)thieno[3,2-d]pyrimidin-6-yl)ethyl)piperidin-4-amine], for which the IC50 is below 0.001 µM. `Cc1cccc(-c2ccn(-c3nc(N4CCOCC4)c4nc(CN5CCC(C(C)(C)O)CC5)[nH]c4n3)n2)c1` [Ex. 13, 2-(1-((6-morpholino-2-(3-(m-tolyl)-1H-pyrazol-1-yl)-9H-purin-8-yl)methyl)piperidin-4-yl)propan-2-ol] had an IC50 of 0.001 to 0.01 µM. `Cc1cccc(-c2ccn(-c3nc(N4CCOCC4)c4sc(CN5CC[C@@H](N(C)C)C5)cc4n3)n2)c1` [Ex. 18, (R)—N,N-dimethyl-1-((4-morpholino-2-(3-(m-tolyl)-1H-pyrazol-1-yl)thieno[3,2-d]pyrimidin-6-yl)methyl)pyrrolidin-3-amine] had a 50% inhibitory concentration (IC50) below 0.001 µM. The same measure, in the same setting: in the case of `Cc1cccc(-c2ccn(-c3nc(N4CCOCC4)c4sc(CN5CCN(C)CC5)cc4n3)n2)c1` [Ex. 31, 4-(6-((4-methylpiperazin-1-yl)methyl)-2-(3-(m-tolyl)-1H-pyrazol-1-yl)thieno[3,2-d]pyrimidin-4-yl)morpholine] it was 0.001 to 0.01 µM; in that of `Cc1cccc(-c2ccn(-c3nc(N4CCOCC4)c4nc(CN5CCC(C(C)(C)O)CC5)n(C)c4n3)n2)c1` [Ex. 62, 2-(1-((9-methyl-6-morpholino-2-(3-(m-tolyl)-1H-pyrazol-1-yl)-9H-purin-8-yl)methyl)piperidin-4-yl)propan-2-ol], 0.001 to 0.01 µM.

For `Cc1cccc(-c2ccn(-c3nc(N4CCOCC4)c4sc(CN5CCC6(OCCO6)C(F)C5)cc4n3)n2)c1` (centres unmarked) [Ex. 50, 6-fluoro-8-((4-morpholino-2-(3-(m-tolyl)-1H-pyrazol-1-yl)thieno[3,2-d]pyrimidin-6-yl)methyl)-1,4-dioxa-8-azaspiro[4.5]decane], the IC50 lay within 0.001 to 0.01 µM. Regarding `Cc1cccc(-c2ccn(-c3cc(N4CCOCC4)c4nc(CN5CCOCC5)n(C)c4n3)n2)c1` [Ex. 74, 4-(3-methyl-2-(morpholinomethyl)-5-(3-(m-tolyl)-1H-pyrazol-1-yl)-3H-imidazo[4,5-b]pyridin-7-yl)morpholine], the IC50 was below 0.001 µM.

`Cc1cccc(-c2ccn(-c3nc(N4CCOCC4)c4sc(CN5CCC(N6CCOCC6)CC5)cc4n3)n2)c1` [Ex. 33, 4-(1-((4-morpholino-2-(3-(m-tolyl)-1H-pyrazol-1-yl)thieno[3,2-d]pyrimidin-6-yl)methyl)piperidin-4-yl)morpholine]: the IC50 was above 0.1 µM. On the same count and under the same terms, for `Cc1cccc(-c2ccn(-c3nc(N4CCOCC4)c4nc(CN5CCOCC5)sc4n3)n2)c1` [Ex. 30, 4-((7-morpholino-5-(3-(m-tolyl)-1H-pyrazolyl)thiazolo[5,4-d]pyrimidin-2-yl)methyl)morpholine] the value was 0.001 to 0.01 µM. For `Cc1cccc(-c2ccn(-c3nc(N4CCOCC4)c4sc(C(=O)N5CCC(N(C)C)CC5)cc4n3)n2)c1` [Ex. 23, (4-(dimethylamino)piperidin-1-yl)(4-morpholino-2-(3-(m-tolyl)-1H-pyrazol-1-yl)thieno[3,2-d]pyrimidin-6-yl)methanone], the IC50 is below 0.001 µM. In turn, `Cc1cccc(-c2ccn(-c3nc(N4CCOCC4)c4sc(CN5CC(C6CCOCC6)C5)c(C)c4n3)n2)c1` [Ex. 63, 4-(7-methyl-6-((3-(tetrahydro-2H-pyran-4-yl)azetidin-1-yl)methyl)-2-(3-(m-tolyl)-1H-pyrazol-1-yl)thieno[3,2-d]pyrimidin-4-yl)morpholine] showed an IC50 of 0.001 to 0.01 µM. Still for that read-out and setting: for `COc1cccc(-c2ccn(-c3nc(N4CCOCC4)c4sc(CN5CCN(S(C)(=O)=O)CC5)cc4n3)n2)c1` [Ex. 3, 4-(2-(3-(3-methoxyphenyl)-1H-pyrazol-1-yl)-6-((4-(methylsulfonyl)piperazin-1-yl)methyl)thieno[3,2-d]pyrimidin-4-yl)morpholine] the value was 0.001 to 0.01 µM. `Cc1cccc(-c2ccn(-c3nc(N4CCOCC4)c4nc(CN5CCN(S(C)(=O)=O)CC5)sc4n3)n2)c1` [Ex. 9, 4-(2-((4-(methylsulfonyl)piperazin-1-yl)methyl)-5-(3-(m-tolyl)-1H-pyrazol-1-yl)thiazolo[5,4-d]pyrimidin-7-yl)morpholine] had an IC50 of 0.001 to 0.01 µM.

The subject of the next data set is SARS-CoV-2 (strain USA-WA1/2020). Put plainly: SARS-CoV-2 antiviral assay (inhibition of CPE, neutral red). In kind it is cell-based. As to conditions: Severe acute respiratory syndrome coronavirus 2; SARS-COV2; inhibition of CPE by 50%.
Turning to `CCC(CC)COC(=O)[C@H](C)N[P@](=O)(OC[C@H]1O[C@@](C#N)(c2ccc3c(N)ncnn23)[C@H](O)[C@@H]1O)Oc1ccccc1` [remdesivir, reference compound], a half-maximal response (EC50) required 5.6 µM.

The test system of the next data set is influenza A strain California/07/09 (H1N1)pdm09. Put plainly: Influenza A antiviral assay (inhibition of CPE, neutral red). In kind it is cell-based. As to conditions: Influenza A virus, H1N1.
Turning to `NC(=O)c1ncn([C@@H]2O[C@H](CO)[C@@H](O)[C@H]2O)n1` [ribavirin, reference compound], the EC50 – broadly, the concentration needed to bring the measured effect to its halfway point – was found to be 3.8 µM.

Test system in a further data set: not listed separately
In words: in vitro. The settings on record: dog.
Regarding `CCC(CC)COC(=O)[C@H](C)N[P@](=O)(OC[C@H]1O[C@@](C#N)(c2ccc3c(N)ncnn23)[C@H](O)[C@@H]1O)Oc1ccccc1` [remdesivir, reference compound], the CC50 was above 100 µM. Still for that read-out and setting: for `NC(=O)c1ncn([C@@H]2O[C@H](CO)[C@@H](O)[C@H]2O)n1` [ribavirin, reference compound] the value was above 1000 µM.
